# Measurements: US10744150B2, “Cyclic dinucleotides as anticancer agents” (BRISTOL-MYERS SQUIBB COMPANY, priority 2017, dated 2020)
# Read-outs that look alike come from different tables or passages of the source.
# Legend:
# [1] = tested on: IRF3; assay: STING THP1 reporter assay, IRF pathway (secreted luciferase Lucia, QUANTI-Luc); format: cell-based; details: THP1-Dual cells, 10% human plasma, 100% activation = 100 μM cGAMP, luciferase readout, read-out: THP1 Reporter Assays EC50 IRF3
# Description: (§1) THP1-Dual™ cells were derived from the human THP-1 monocyte cell line by stable integration of two inducible reporter constructs. To this end, THP1-Dual™ cells allow the simultaneous study of the NF-κB pathway, by monitoring the activity of SEAP, and the IRF pathway by assessing the activity of a secreted luciferase (Lucia). Both reporter proteins are readily measurable in the cell culture supernatant when using QUANTI-Blue™, a SEAP detection reagent, and QUANTI-Luc™, a luciferase detection reagent.
# (§2) THP1-Dual™ cells induce the activation of NF-κB in response to STING agonists. They also trigger the IRF pathway upon stimulation with STING agonists, such as cGAMP. Here, the THP-1-Dual cells were used to assess STING binders for function on the cellular level.
# (§3) Serial dilutions of compounds in DMSO were added to low volume 384 well plates at 100 nl/well using an ECHO acoustic dispenser (Labcyte, model 550) to achieve final starting concentration of 100 μM in cell suspension. THP-1 Dual™ STING reporter cells (Invivogen, Dual cells cat # THPD-nfis) were added to the plates with compounds at 15,000 cells in 10 μL per well in RPMI media (Gibco, cat #11875) containing 10% human plasma in a low volume 384-well black wall clear bottom tissue culture plate (Corning, cat #3542) for SEAP assay and low volume solid white plate (Corning, cat #3826) for luciferase assay. One column of the plate was reserved for treatment with cGAMP at 100 μM for 100% activation calculation and one column for no treatment (DMSO only) for baseline activation. Plates were then incubated in 37° C. incubator at 5% CO2 for 20 hours.
# (§4) In the SEAP assay, 5 μl of 2× QuantiBlue (Invivogen, cat # Rep-qb2) is added to 384 well black plates seeded with THP1 cells and incubated at 37° C. for 2 hours. Plates were read on the Envision (Perkin Elmer) at 620 nm wavelength (OD620). In the luciferase assay, 5 μl of Quantiluc (Invivogen, Rep-qlc2) is added to white 384 well plates seeded with THP1 cells and read at 5 minutes on the Envision (Perkin Elmer) using a luminescence protocol (RLU). For both cell lines, 100% activation was determined by value (RLU) of THP-1 Dual STING cells stimulated with 100 μM cGAMP (Invivogen, cat # TLRL-NACGA23-5).
# [2] = target: T1, STING AQ: His-TVMV-S-hSTING(155-341)-G230A-R293Q (Homo sapiens, UniProt Q86WV6, G230A/H232R/R293Q); assay: STING HTRF binding assay (time resolved FRET competition), STING AQ; details: 20 nM His-tagged STING cytoplasmic domain, 40 nM fluorescein-labeled cGAMP analog probe, one hour; read-out: HTRF Binding Assays IC50 STING AQ
# T1 construct: His-TVMV-S-hSTING(155-341)-G230A-R293Q
# T1 sequence (Q86WV6 with tags, fused parts or gaps G230A/H232R/R293Q): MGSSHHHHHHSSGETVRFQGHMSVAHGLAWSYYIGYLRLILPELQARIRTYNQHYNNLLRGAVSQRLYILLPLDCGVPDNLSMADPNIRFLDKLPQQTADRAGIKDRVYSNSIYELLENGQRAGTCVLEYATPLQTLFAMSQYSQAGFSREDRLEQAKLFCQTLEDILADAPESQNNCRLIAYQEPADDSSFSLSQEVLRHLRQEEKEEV
# Description: (§5) A time resolved FRET-based competition binding assay was used to assess test article binding to STING WT and STING AQ. His-tagged STING cytoplasmic domain (WT or AQ) at a concentration of 20 nM was incubated with 2.5 nM Tb-labeled anti-His antibody, test compound, and fluorescein-labeled cGAMP analog probe (BioLog cat. no. C195) at a concentration of 200 nM (STING WT) or 40 nM (STING AQ) in PBS containing 0.005% Tween-20 and 0.1% BSA for one hour. Fluorescence at 495 nm and 520 nm was measured using an EnVision microplate reader to quantify FRET between Tb-labeled anti-His antibody and fluorescein-labeled probe. Background was defined as the signal obtained in the absence of STING protein, and background subtracted FRET ratios were normalized to the maximum signal obtained in the absence of test compound. These values were converted to a percent inhibition. Percent inhibition was determined for test compounds at 11 concentrations. The IC50, defined as the concentration of competing test compound needed to reduce specific binding of the probe by 50%, was calculated using the 4 parameter logistic equation to fit the data
# [3] = tested on: NFkB; assay: STING THP1 reporter assay, NF-κB pathway (SEAP, QUANTI-Blue); format: cell-based; details: THP1-Dual cells, 10% human plasma, 100% activation = 100 μM cGAMP
# Description: as §1, §2, §3, §4
# [4] = target: T2, STING WT: His-TVMV-S-hSTING(155-341)-H232R (Homo sapiens, UniProt Q86WV6, H232R); assay: STING HTRF binding assay (time resolved FRET competition), STING WT; details: 20 nM His-tagged STING cytoplasmic domain, 200 nM fluorescein-labeled cGAMP analog probe, one hour; read-out: HTRF Binding Assays IC50 STING WT
# T2 construct: His-TVMV-S-hSTING(155-341)-H232R
# T2 sequence (Q86WV6 with tags, fused parts or gaps H232R): as the sequence (Q86WV6 with tags, fused parts or gaps G230A/H232R/R293Q) above, with A99G, Q162R counted along it
# Description: as §5
# [5] = 20 hours, SEAP readout OD620, read-out: THP1 Reporter Assays EC50 NFkB
# [6] = Homo sapiens, THP-1, 20 h, SEAP readout OD620, read-out: THP1 Reporter Assays EC50 NFkB
SMILES,EC50 ([1]; 20 hours) [µM],IC50 [2] [µM],"EC50 [3, 5] [µM]",IC50 [4] [µM],"EC50 ([1]; Homo sapiens, THP-1, 20 h) [µM]","EC50 [3, 6] [µM]"
"Nc1ncnc2c1ncn2[C@@H]1C[C@@H]2COP(O)(=S)O[C@H]3[C@H](F)[C@H](n4ccc5c(Cl)ncnc54)O[C@@H]3COP(O)(=S)OC[C@H]21 (single isomer, unassigned) [Example 7-3]",> 100,61.1,> 100,> 100,–,–
"Nc1ncnc2c1ncn2[C@@H]1C[C@@H]2COP(O)(=S)O[C@H]3[C@H](F)[C@H](n4ccc5c(Cl)ncnc54)O[C@@H]3COP(O)(=S)OC[C@H]21 (single isomer, unassigned) [Example 7-4]",> 100,6.3,> 100,49.1,–,–
"Nc1ncnc2c1ccn2[C@@H]1O[C@@H]2COP(O)(=S)OC[C@@H]3[C@@H](COP(O)(=S)O[C@H]2[C@@H]1F)C[C@H]3n1cnc2c(N)ncnc21 (single isomer, unassigned) [Example 8-2]",> 100,> 100,97,33,–,–
"Nc1ncnc2c1ccn2[C@@H]1O[C@@H]2COP(O)(=S)OC[C@@H]3[C@@H](COP(O)(=S)O[C@H]2[C@@H]1F)C[C@H]3n1cnc2c(N)ncnc21 (single isomer, unassigned) [Example 8-3]",> 100,> 100,> 100,> 100,–,–
"Nc1ncnc2c1ccn2[C@@H]1O[C@@H]2COP(O)(=S)OC[C@@H]3[C@@H](COP(O)(=S)O[C@H]2[C@@H]1F)C[C@H]3n1cnc2c(N)ncnc21 (single isomer, unassigned) [Example 8-4]",> 100,15.8,> 100,> 100,–,–
"Nc1ncnc2c1ncn2[C@@H]1C[C@@H]2COP(O)(=S)O[C@H]3[C@@H](F)[C@H](n4cnc5c(=O)[nH]c6nccn6c54)O[C@@H]3COP(O)(=S)OC[C@H]21 (single isomer, unassigned) [Example 9-1]",–,20,–,> 100,> 100,> 100
"Nc1ncnc2c1ncn2[C@@H]1C[C@@H]2COP(O)(=S)O[C@H]3[C@@H](F)[C@H](n4cnc5c(=O)[nH]c6nccn6c54)O[C@@H]3COP(O)(=S)OC[C@H]21 (single isomer, unassigned) [Example 9-2]",> 100,0.92,> 100,4.3,–,–
"Nc1ncnc2c1ncn2[C@@H]1C[C@@H]2COP(O)(=S)O[C@H]3[C@@H](F)[C@H](n4cnc5c(=O)[nH]c6nccn6c54)O[C@@H]3COP(O)(=S)OC[C@H]21 (single isomer, unassigned) [Example 9-3]",> 100,0.35,> 100,9.1,–,–
"Nc1ncnc2c1ncn2[C@@H]1C[C@@H]2COP(O)(=S)O[C@H]3[C@@H](F)[C@H](n4cnc5c(=O)[nH]c6nccn6c54)O[C@@H]3COP(O)(=S)OC[C@H]21 (single isomer, unassigned) [Example 9-4]",> 100,0.08,> 100,1.4,–,–
"NC(=O)c1cccc2c1nnn2[C@@H]1O[C@@H]2COP(O)(=S)OC[C@@H]3[C@@H](COP(O)(=S)O[C@@H]1[C@@H]2F)C[C@H]3n1cnc2c(N)ncnc21 (single isomer, unassigned) [Example 11-1]",–,3.1,–,20.5,> 100,> 100
"NC(=O)c1cccc2c1nnn2[C@@H]1O[C@@H]2COP(O)(=S)OC[C@@H]3[C@@H](COP(O)(=S)O[C@@H]1[C@@H]2F)C[C@H]3n1cnc2c(N)ncnc21 (single isomer, unassigned) [Example 11-2]",> 100,1.4,> 100,19.4,–,–
"NC(=O)c1cccc2c1nnn2[C@@H]1O[C@@H]2COP(O)(=S)OC[C@@H]3[C@@H](COP(O)(=S)O[C@@H]1[C@@H]2F)C[C@H]3n1cnc2c(N)ncnc21 (single isomer, unassigned) [Example 11-3]",70,0.11,51,0.82,–,–
"NC(=O)c1cccc2c1nnn2[C@@H]1O[C@@H]2COP(O)(=S)OC[C@@H]3[C@@H](COP(O)(=S)O[C@@H]1[C@@H]2F)C[C@H]3n1cnc2c(N)ncnc21 (single isomer, unassigned) [Example 11-4]",> 100,23.1,> 100,66.2,–,–
"NC(=O)c1cccc2c1nnn2[C@@H]1O[C@@H]2COP(O)(=S)OC[C@@H]3[C@@H](COP(O)(=S)O[C@H]2[C@H]1F)C[C@H]3n1cnc2c(N)ncnc21 (single isomer, unassigned) [Example 12-1]",–,19.9,–,52.8,> 100,> 100
"NC(=O)c1cccc2c1nnn2[C@@H]1O[C@@H]2COP(O)(=S)OC[C@@H]3[C@@H](COP(O)(=S)O[C@H]2[C@H]1F)C[C@H]3n1cnc2c(N)ncnc21 (single isomer, unassigned) [Example 12-2]",> 100,88.7,> 100,> 100,–,–
"NC(=O)c1cccc2c1nnn2[C@@H]1O[C@@H]2COP(O)(=S)OC[C@@H]3[C@@H](COP(O)(=S)O[C@H]2[C@H]1F)C[C@H]3n1cnc2c(N)ncnc21 (single isomer, unassigned) [Example 12-3]",> 100,64.4,> 100,> 100,–,–
"NC(=O)c1cccc2c1nnn2[C@@H]1O[C@@H]2COP(O)(=S)OC[C@@H]3[C@@H](COP(O)(=S)O[C@H]2[C@H]1F)C[C@H]3n1cnc2c(N)ncnc21 (single isomer, unassigned) [Example 12-4]",> 100,0.4,> 100,22,–,–
"NC(=O)c1cccc2c1nnn2[C@@H]1C[C@@H]2COP(O)(=S)O[C@H]3[C@@H](F)[C@H](n4cnc5c(N)ncnc54)O[C@@H]3COP(O)(=S)OC[C@H]21 (single isomer, unassigned) [Example 13-1]",–,85.1,–,> 100,> 100,> 100
"NC(=O)c1cccc2c1nnn2[C@@H]1C[C@@H]2COP(O)(=S)O[C@H]3[C@@H](F)[C@H](n4cnc5c(N)ncnc54)O[C@@H]3COP(O)(=S)OC[C@H]21 (single isomer, unassigned) [Example 13-2]",> 100,3,> 100,> 100,–,–
"NC(=O)c1cccc2c1nnn2[C@@H]1C[C@@H]2COP(O)(=S)O[C@H]3[C@@H](F)[C@H](n4cnc5c(N)ncnc54)O[C@@H]3COP(O)(=S)OC[C@H]21 (single isomer, unassigned) [Example 13-3]",> 100,3.8,> 100,> 100,–,–
